Data from US20260206755A1, “COMPOUNDS AND COMPOSITIONS HAVING KNOCK-DOWN OR BLOOD FEED INHIBITION ACTIVITY AGAINST INSECT PESTS” (priority 2017, published 2026).
Like-named read-outs stand apart in the source and are kept apart here.

Test system: Anopheles stephensi
Assay: Anopheles stephensi treated well plate contact test: knockdown and mortality
Format: in vivo
Outline: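 Well surfaces coated with ethanol solution of compound at a defined concentration, alone or with 2 ppm TFNA-AM, then dried. Five non-blood-fed 2–5-day-old adult females per well, fed 10% sucrose; knockdown scored at 1 hour, mortality at 24 and 48 hours, replicate means reported.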

[1] = Anopheles stephensi, test compound 0.2 ppm, without TFNA-AM, after 24 hours, read-out: mortality % 24, without TFNA-AM
[2] = Anopheles stephensi, test compound 0.2 ppm, without TFNA-AM, after 48 hours, read-out: mortality % 48, without TFNA-AM
[3] = Anopheles stephensi, test compound 0.2 ppm, without TFNA-AM, knockdown after 1 hour, read-out: Knock Down, without TFNA-AM
[4] = Anopheles stephensi, test compound 2 ppm, without TFNA-AM, after 24 hours, read-out: mortality % 24, without TFNA-AM
[5] = Anopheles stephensi, test compound 2 ppm, without TFNA-AM, after 48 hours, read-out: mortality % 48, without TFNA-AM
[6] = Anopheles stephensi, test compound 2 ppm, without TFNA-AM, knockdown after 1 hour, read-out: Knock Down, without TFNA-AM
[7] = Anopheles stephensi, test compound 20 ppm, without TFNA-AM, after 24 hours, read-out: mortality % 24, without TFNA-AM
[8] = Anopheles stephensi, test compound 20 ppm, without TFNA-AM, after 48 hours, read-out: mortality % 48, without TFNA-AM
[9] = Anopheles stephensi, test compound 20 ppm, without TFNA-AM, knockdown after 1 hour, read-out: Knock Down, without TFNA-AM
[10] = Anopheles stephensi, test compound 200 ppm, without TFNA-AM, after 24 hours, read-out: mortality % 24, without TFNA-AM
[11] = Anopheles stephensi, test compound 200 ppm, without TFNA-AM, after 48 hours, read-out: mortality % 48, without TFNA-AM
[12] = Anopheles stephensi, test compound 200 ppm, without TFNA-AM, knockdown after 1 hour, adult females, read-out: Knock Down, without TFNA-AM
[13] = test compound 0.2 ppm plus 2 ppm TFNA-AM, after 24 hours
[14] = test compound 0.2 ppm plus 2 ppm TFNA-AM, knockdown after 1 hour
[15] = test compound 2 ppm plus 2 ppm TFNA-AM, after 48 hours
[16] = test compound 2 ppm plus 2 ppm TFNA-AM, knockdown after 1 hour
[17] = test compound 20 ppm plus 2 ppm TFNA-AM, after 48 hours
[18] = test compound 20 ppm plus 2 ppm TFNA-AM, knockdown after 1 hour
[19] = test compound 200 ppm plus 2 ppm TFNA-AM, after 24 hours
[20] = test compound 200 ppm plus 2 ppm TFNA-AM, after 48 hours
[21] = test compound 200 ppm plus 2 ppm TFNA-AM, knockdown after 1 hour
[22] = test compound 0.2 ppm plus 2 ppm TFNA-AM, after 48 hours
[23] = test compound 2 ppm plus 2 ppm TFNA-AM, after 24 hours
[24] = test compound 20 ppm plus 2 ppm TFNA-AM, after 24 hours

CN1COCN(Cc2cnc(Cl)s2)/C1=N\[N+](=O)[O-] [Thiamethoxam] gave a mortality at 0.2 ppm [1] of 0%, a mortality at 0.2 ppm [2] of 0% and a pest or weed control at 0.2 ppm [3] of 0%. It also gave a mortality at 2 ppm [4] of 40%, a mortality at 2 ppm [5] of 40% and a pest or weed control at 2 ppm [6] of 0%. It also gave a mortality at 20 ppm [7] of 60%, a mortality at 20 ppm [8] of 40% and a pest or weed control at 20 ppm [9] of 0%. It also gave a mortality at 200 ppm [10] of 80%, a mortality at 200 ppm [11] of 80% and a pest or weed control at 200 ppm [12] of 0%. The “mortality % 24, with TFNA-AM” value [13] was 20%, the “Knock Down, with TFNA-AM” value [14] was 100% and the “mortality % 48, with TFNA-AM” value [15] was 100%. For the same molecule, the “Knock Down, with TFNA-AM” value [16] was 100%, the “mortality % 48, with TFNA-AM” value [17] was 100% and the “Knock Down, with TFNA-AM” value [18] was 100%. For the same molecule, the “mortality % 24, with TFNA-AM” value [19] was 100%, the “mortality % 48, with TFNA-AM” value [20] was 100% and the “Knock Down, with TFNA-AM” value [21] was 100%.

CO/C=C(/C(=O)OC)c1ccccc1Oc1nc(C(C)(C)C)ns1 [Compound 48] was tested, and the mortality at 0.2 ppm [1] was 0%, the mortality at 0.2 ppm [2] was 0% and the pest or weed control at 0.2 ppm [3] was 20%. The mortality at 2 ppm [4] was 100%, the mortality at 2 ppm [5] was 100% and the pest or weed control at 2 ppm [6] was 60%. It also gave a mortality at 20 ppm [7] of 100%, a mortality at 20 ppm [8] of 100% and a pest or weed control at 20 ppm [9] of 100%. It also gave a mortality at 200 ppm [10] of 100%, a mortality at 200 ppm [11] of 100% and a pest or weed control at 200 ppm [12] of 100%. The “mortality % 24, with TFNA-AM” value [13] was 80%, the “mortality % 48, with TFNA-AM” value [22] was 100% and the “Knock Down, with TFNA-AM” value [14] was 100%. For the same molecule, the “mortality % 24, with TFNA-AM” value [23] was 100%, the “mortality % 48, with TFNA-AM” value [15] was 100% and the “Knock Down, with TFNA-AM” value [16] was 100%. For the same molecule, the “mortality % 24, with TFNA-AM” value [24] was 100%, the “mortality % 48, with TFNA-AM” value [17] was 100% and the “Knock Down, with TFNA-AM” value [18] was 100%. For the same molecule, the “mortality % 24, with TFNA-AM” value [19] was 100%, the “mortality % 48, with TFNA-AM” value [20] was 100% and the “Knock Down, with TFNA-AM” value [21] was 100%.

Molecule CC1(C)C(C=C(Cl)Cl)C1C(=O)OC(C#N)c1cccc(Oc2ccccc2)c1 (centres unmarked) [Cypermethrin] has a mortality at 0.02 ppm (Anopheles stephensi, test compound 0.02 ppm, without TFNA-AM, after 24 hours, read-out: mortality % 24, without TFNA-AM) of 0%, a mortality at 0.02 ppm (Anopheles stephensi, test compound 0.02 ppm, without TFNA-AM, after 48 hours, read-out: mortality % 48, without TFNA-AM) of 20% and a pest or weed control at 0.02 ppm (Anopheles stephensi, test compound 0.02 ppm, without TFNA-AM, knockdown after 1 hour, read-out: Knock Down, without TFNA-AM) of 0%. For the same molecule, the mortality at 0.2 ppm [1] was 0%, the mortality at 0.2 ppm [2] was 40% and the pest or weed control at 0.2 ppm [3] was 0%. For the same molecule, the mortality at 2 ppm [4] was 100%, the mortality at 2 ppm [5] was 100% and the pest or weed control at 2 ppm [6] was 100%. The mortality at 20 ppm [7] was 100%, the mortality at 20 ppm [8] was 100% and the pest or weed control at 20 ppm [9] was 100%. For the same molecule, the “mortality % 24, with TFNA-AM” value (test compound 0.02 ppm plus 2 ppm TFNA-AM, after 24 hours) was 80%, the “Knock Down, with TFNA-AM” value (test compound 0.02 ppm plus 2 ppm TFNA-AM, knockdown after 1 hour) was 100% and the “mortality % 24, with TFNA-AM” value [13] was 100%. The “mortality % 48, with TFNA-AM” value [22] was 100%, the “Knock Down, with TFNA-AM” value [14] was 100% and the “mortality % 24, with TFNA-AM” value [23] was 100%. For the same molecule, the “mortality % 48, with TFNA-AM” value [15] was 100%, the “Knock Down, with TFNA-AM” value [16] was 100% and the “mortality % 24, with TFNA-AM” value [24] was 100%. For the same molecule, the “mortality % 48, with TFNA-AM” value [17] was 100% and the “Knock Down, with TFNA-AM” value [18] was 100%.

In the case of N#Cc1ccc(CC(=NNC(=O)Nc2ccc(OC(F)(F)F)cc2)c2cccc(C(F)(F)F)c2)cc1 (mixture of isomers) [Metaflumizone], the “mortality % 24, with TFNA-AM” value [13] is reported as 40%, the “mortality % 48, with TFNA-AM” value [22] is reported as 60% and the “Knock Down, with TFNA-AM” value [14] is reported as 100%. The “mortality % 24, without TFNA-AM” value (test compound 0.2 ppm, without TFNA-AM, after 24 hours) was 0%, the “mortality % 48, without TFNA-AM” value (test compound 0.2 ppm, without TFNA-AM, after 48 hours) was 0% and the “Knock Down, without TFNA-AM” value (test compound 0.2 ppm, without TFNA-AM, knockdown after 1 hour) was 0%. For the same molecule, the “mortality % 24, with TFNA-AM” value [23] was 100%, the “mortality % 48, with TFNA-AM” value [15] was 100% and the “Knock Down, with TFNA-AM” value [16] was 100%. The “mortality % 24, without TFNA-AM” value (test compound 2 ppm, without TFNA-AM, after 24 hours) was 0%, the “mortality % 48, without TFNA-AM” value (test compound 2 ppm, without TFNA-AM, after 48 hours) was 0% and the “Knock Down, without TFNA-AM” value (test compound 2 ppm, without TFNA-AM, knockdown after 1 hour) was 0%. For the same molecule, the “mortality % 24, with TFNA-AM” value [24] was 100%, the “mortality % 48, with TFNA-AM” value [17] was 100% and the “Knock Down, with TFNA-AM” value [18] was 100%. The “mortality % 24, without TFNA-AM” value (test compound 20 ppm, without TFNA-AM, after 24 hours) was 0%, the “mortality % 48, without TFNA-AM” value (test compound 20 ppm, without TFNA-AM, after 48 hours) was 0% and the “Knock Down, without TFNA-AM” value (test compound 20 ppm, without TFNA-AM, knockdown after 1 hour) was 0%. The “mortality % 24, with TFNA-AM” value [19] was 100%, the “mortality % 48, with TFNA-AM” value [20] was 100% and the “Knock Down, with TFNA-AM” value [21] was 100%. The “mortality % 24, without TFNA-AM” value (test compound 200 ppm, without TFNA-AM, after 24 hours) was 0%, the “mortality % 48, without TFNA-AM” value (test compound 200 ppm, without TFNA-AM, after 48 hours) was 80% and the “Knock Down, without TFNA-AM” value (test compound 200 ppm, without TFNA-AM, knockdown after 1 hour, adult females) was 0%.
